From patent US20050164976A1, “Combination of a cdk inhibitor and 5-fu for the tratment of cancer” (Cyclacel Limited, priority 2002, published 2005)

Tests used:
HT29 cells [1] = test: cells; conditions: Homo sapiens, HT-29
Text: Cells were washed in media to inactivate trypsin before reseeding or analysis.

HT29 cells [2] = test: analysis of cell cycle distribution by flow cytometry; assay type: cell-based, human; conditions: single agent, 48 hours; roscovitine 20 μM and 40 μM; 5-FU 0.5 μM and 1 μM; dose dependent
[3] = system: human mammary cancer xenograft MAXF 857; conditions: 5FU alone at the concentrations used in the combination
Protocol: Cells were passed through sieves of 200 μm and 50 μm mesh size and washed twice with sterile PBS-buffer (Life Technologies). The percentage of viable cells was determined in a Neubauer-hemocytometer using trypan blue exclusion.
The clonogenic assay was performed in a 24-well format according to a modified two-layer soft agar assay introduced by Hamburger et al [Hamburger, A. W. & S. E. Salmon. […] The bottom layer consisted of 0.2 ml/well of Iscove's Modified Dulbecco's Medium (supplemented with 20% (v/v) fetal calf serum and 0.01% (v/v) gentamicin) and 0.75% (w/v) agar. 5·10^4 cells were added to 0.2 ml of the same culture medium supplemented with 0.4% (w/v) agar and plated in 24-multiwell dishes onto the bottom layer. Cytostatic drugs were applied by continuous exposure (drug overlay) in 0.2 ml culture medium 24 hours after seeding in the cells. Every dish included six control wells and drug-treated groups in triplicate at 6 concentrations. […] Cultures were incubated at 37° C. and 7.5% CO2 in a humidified atmosphere for 8-20 days and monitored closely for colony growth using an inverted microscope. Within this period, in vitro tumor growth led to the formation of colonies with a diameter of >50 μm. At the time of maximum colony formation, counts were performed with an automatic image analysis system (OMNICON FAS IV, Biosys GmbH). […]

HT29 cells [4] = test: activated caspase-3 assay; assay type: cell-based, human; conditions: single agent, dose dependent
MCF7 cells = test: cells; conditions: Homo sapiens
Protocol: MCF7 cells were seeded at 3,000/well in 96 well plates. Cell were allowed to settle overnight, and medium replaced with drug-containing medium the next day. Nine different drug treatments were tested, in triplicate, in each plate.

HT29 cells [5] = conditions: single agent; 40 μM roscovitine; 1 μM 5-FU
Protocol: HT29 cells were seeded and treated with drug in the same way as for the determination of cell cycle distribution. After 24 hours, media was replaced with that containing 10 μM BrdU and incubated for 30 minutes. Detached cells were harvested, plates were washed twice in PBS and adherent cells harvested by trypsinisation. Adherent and detached cells were pooled, washed in PBS, fixed in ice cold 70% v/v ethanol and stored at 4° C. Cells were washed twice in PBS+1% BSA and treated with 2M HCl for 20 minutes, followed by a further three washes in PBS. Cells were pelleted and 2 μl of anti-BrdU antibody (Pharmingen) added to the pellet. […] After incubation at room temperature protected from light for 20 minutes, samples were analysed by flow cytometry.
A Becton Dickinson LSR flow cytometer was used for these studies, in accordance with the manufacturers recommendations. […] Where used, activated caspase-3 and BrdU positive cells were designated as such on the basis of green fluorescence (530±28 nm), acquired on a logarithmic scale. Red fluorescence (575±26 nm) was acquired on a linear scale and pulse width analysis was used to exclude cell doublets and aggregates from the analysis. Cells with a DNA content of between 2n and 4n were designated as being in G1, S or G2/M phases of the cell cycle, as defined by the level of red fluorescence. […]

| IC50 (HT29 cells [1]) [µM] | IC50 (MCF7 cells) [µM] | SMILES | effect on cell cycle distribution (HT29 cells [2]) | effect on cell growth [3] | activation of caspase-3 (HT29 cells [4]) | number of cells incorporating BrdU (HT29 cells [5]) [%] |
| --- | --- | --- | --- | --- | --- | --- |
| 1 | 8 | O=c1[nH]cc(F)c(=O)[nH]1 [5-FU, 5-Fluorouracil] | accumulation of cells in S phase | no effect on cell growth | albeit to a lesser extent | 64.3 |
| – | – | CC[C@H](CO)Nc1nc(NCc2ccccc2)c2ncn(C(C)C)c2n1 [roscovitine, 6-benzylamino-2-[(R)-1-ethyl-2-hydroxyethylamino]-9-isopropylpurine] | accumulation of cells in G2/M | – | induces activation of caspase-3 | 3.8 |
